Test results: ChEMBL document CHEMBL1201862, “PubChem BioAssay data set” (2004)
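Briefly, cells in 96-well plates were exposed to five compound concentrations for 48 h, and endpoints were estimated by linear interpolation. GI50 is the concentration that inhibits growth by half.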 Activity calls are given as the source filed them. Cut-off read from the data, not from the text of the source: active = GI50 up to about 1.1 µM and inactive = higher.

Tests used:
Assay in all cases: NCI anticancer screen, dose series, 48 h
A498 = system: A498
A549 = system: A549
CAKI-1 = system: CAKI-1
HL-60 = system: HL-60
HOP-62 = system: HOP-62
K562 = system: K562
MOLT-4 = system: MOLT-4
Malme-3M = system: Malme-3M
NCI-H226 = system: NCI-H226
NCI/ADR-RES = system: NCI/ADR-RES
OVCAR-4 = system: OVCAR-4
OVCAR-5 = system: OVCAR-5
SF-268 = system: SF-268
SK-MEL-28 = system: SK-MEL-28
SK-MEL-2 = system: SK-MEL-2
SN12C = system: SN12C
U-251 = system: U-251
UACC-62 = system: UACC-62
NCI-H23 = system: NCI-H23
M14 = system: M14

Nc1cccc2c1C1=NNC(=O)CC1C2 (centres undefined)
GI50 (A498): > 100 µM (inactive) | GI50 (A549): > 100 µM (inactive) | GI50 (CAKI-1): > 100 µM (inactive) | GI50 (HL-60): > 66.5 µM (inactive) | GI50 (HOP-62): > 66.5 µM (inactive) | GI50 (K562): > 100 µM (inactive) | GI50 (MOLT-4): > 100 µM (inactive) | GI50 (Malme-3M): > 100 µM (inactive) | GI50 (NCI-H226): > 100 µM (inactive) | GI50 (NCI/ADR-RES): > 100 µM (inactive) | GI50 (OVCAR-4): > 100 µM (inactive) | GI50 (OVCAR-5): > 100 µM (inactive) | GI50 (SF-268): > 100 µM (inactive) | GI50 (SK-MEL-28): > 100 µM (inactive) | GI50 (SK-MEL-2): > 100 µM (inactive) | GI50 (SN12C): > 100 µM (inactive) | GI50 (U-251): > 100 µM (inactive) | GI50 (UACC-62): > 100 µM (inactive)

CNC(=O)SCC(N)C(=O)O (centres undefined)
GI50 (A498): > 100 µM (inactive) | GI50 (A549): > 100 µM (inactive) | GI50 (CAKI-1): 65.8 µM (inactive) | GI50 (HL-60): 25.2 µM (inactive) | GI50 (HOP-62): > 100 µM (inactive) | GI50 (K562): 30.6 µM (inactive) | GI50 (MOLT-4): 38.2 µM (inactive) | GI50 (Malme-3M): > 100 µM (inactive) | GI50 (NCI-H226): > 84.7 µM (inactive) | GI50 (NCI-H23): > 84.1 µM (inactive) | GI50 (NCI/ADR-RES): > 100 µM (inactive) | GI50 (OVCAR-4): > 100 µM (inactive) | GI50 (OVCAR-5): > 100 µM (inactive) | GI50 (SF-268): > 100 µM (inactive) | GI50 (SK-MEL-28): > 100 µM (inactive) | GI50 (SK-MEL-2): > 82 µM (inactive) | GI50 (SN12C): > 95.9 µM (inactive) | GI50 (U-251): > 89.9 µM (inactive) | GI50 (UACC-62): > 94.8 µM (inactive)

COc1ccc(C2SCc3nc4ccccc4n32)cc1 (centres undefined)
GI50 (A498): 5.13 µM (inactive) | GI50 (CAKI-1): 2.21 µM (inactive) | GI50 (HL-60): 1.91 µM (inactive) | GI50 (K562): 2.34 µM (inactive) | GI50 (M14): 4.95 µM (inactive) | GI50 (MOLT-4): 3.37 µM (inactive) | GI50 (Malme-3M): 7.55 µM (inactive) | GI50 (NCI-H226): 8.99 µM (inactive) | GI50 (NCI-H23): 4.04 µM (inactive) | GI50 (SF-268): 5.43 µM (inactive) | GI50 (SK-MEL-28): 4.32 µM (inactive) | GI50 (SK-MEL-2): 3.9 µM (inactive) | GI50 (SN12C): 4.41 µM (inactive) | GI50 (U-251): 3.33 µM (inactive) | GI50 (UACC-62): 3.58 µM (inactive)

C[C@]12CC[C@@H]3c4ccc(OCCN5CCCC5)cc4CC[C@H]3[C@@H]1CCC2=O
GI50 (A498): 81.1 µM (inactive) | GI50 (A549): 23.6 µM (inactive) | GI50 (CAKI-1): 31.1 µM (inactive) | GI50 (HL-60): 45.2 µM (inactive) | GI50 (HOP-62): 18.6 µM (inactive) | GI50 (K562): 25.4 µM (inactive) | GI50 (M14): 13.7 µM (inactive) | GI50 (MOLT-4): 22.4 µM (inactive) | GI50 (NCI-H226): 19.6 µM (inactive) | GI50 (NCI-H23): 36.4 µM (inactive) | GI50 (NCI/ADR-RES): 24.7 µM (inactive) | GI50 (OVCAR-4): 21.5 µM (inactive) | GI50 (OVCAR-5): 33.7 µM (inactive) | GI50 (SK-MEL-28): 49.5 µM (inactive) | GI50 (SK-MEL-2): 17.6 µM (inactive) | GI50 (U-251): 75.2 µM (inactive) | GI50 (UACC-62): 23.8 µM (inactive)

NC(CCP(=O)(O)CCC1C=CC=CC1)C(=O)O (centres undefined)
GI50 (A549): > 100 µM (inactive) | GI50 (CAKI-1): > 100 µM (inactive) | GI50 (HL-60): > 100 µM (inactive) | GI50 (K562): > 100 µM (inactive) | GI50 (M14): > 100 µM (inactive) | GI50 (MOLT-4): > 100 µM (inactive) | GI50 (NCI-H23): > 100 µM (inactive) | GI50 (NCI/ADR-RES): > 100 µM (inactive) | GI50 (OVCAR-4): > 100 µM (inactive) | GI50 (OVCAR-5): > 100 µM (inactive) | GI50 (SF-268): > 100 µM (inactive) | GI50 (SK-MEL-28): > 100 µM (inactive) | GI50 (SK-MEL-2): > 100 µM (inactive) | GI50 (SN12C): > 100 µM (inactive) | GI50 (U-251): > 100 µM (inactive) | GI50 (UACC-62): > 100 µM (inactive)

COc1cc(-c2cc(=O)c3c(O)c(CC=C(C)C)c(O)cc3o2)ccc1O
GI50 (A498): > 50 µM (inactive) | GI50 (A549): 26 µM (inactive) | GI50 (CAKI-1): 10 µM (inactive) | GI50 (HL-60): > 50 µM (inactive) | GI50 (HOP-62): 24.2 µM (inactive) | GI50 (K562): 16.7 µM (inactive) | GI50 (M14): 12.4 µM (inactive) | GI50 (MOLT-4): 16.3 µM (inactive) | GI50 (Malme-3M): 13.5 µM (inactive) | GI50 (NCI-H226): > 50 µM (inactive) | GI50 (NCI-H23): > 50 µM (inactive) | GI50 (NCI/ADR-RES): 16 µM (inactive) | GI50 (OVCAR-4): 15.8 µM (inactive) | GI50 (OVCAR-5): > 50 µM (inactive) | GI50 (SF-268): 24.6 µM (inactive) | GI50 (SK-MEL-28): 1.17 µM (inactive) | GI50 (SK-MEL-2): 23.6 µM (inactive) | GI50 (SN12C): > 50 µM (inactive) | GI50 (U-251): 24.1 µM (inactive) | GI50 (UACC-62): 23 µM (inactive)

O=C(Nc1ccccc1F)c1c(O)nc2sccn2c1=O
GI50 (A498): > 10 µM (inactive) | GI50 (A549): > 10 µM (inactive) | GI50 (CAKI-1): > 10 µM (inactive) | GI50 (HL-60): > 10 µM (inactive) | GI50 (HOP-62): > 10 µM (inactive) | GI50 (M14): > 10 µM (inactive) | GI50 (MOLT-4): > 10 µM (inactive) | GI50 (Malme-3M): > 10 µM (inactive) | GI50 (NCI-H226): > 10 µM (inactive) | GI50 (NCI-H23): > 10 µM (inactive) | GI50 (NCI/ADR-RES): > 10 µM (inactive) | GI50 (OVCAR-4): > 10 µM (inactive) | GI50 (OVCAR-5): > 10 µM (inactive) | GI50 (SF-268): > 10 µM (inactive) | GI50 (SK-MEL-28): > 10 µM (inactive) | GI50 (SK-MEL-2): > 10 µM (inactive) | GI50 (SN12C): > 10 µM (inactive) | GI50 (U-251): > 10 µM (inactive) | GI50 (UACC-62): > 10 µM (inactive)

O=C1c2cccc3cc4ccccc4c(c23)C(=O)N1CCNCCNCCNCCN1C(=O)c2cccc3cc4ccccc4c(c23)C1=O
GI50 (A498): 0.19 µM (active) | GI50 (A549): < 0.01 µM (active) | GI50 (CAKI-1): < 0.01 µM (active) | GI50 (HL-60): < 0.01 µM (active) | GI50 (K562): < 0.01 µM (active) | GI50 (MOLT-4): < 0.01 µM (active) | GI50 (Malme-3M): 0.126 µM (active) | GI50 (NCI-H226): 33.6 µM (inactive) | GI50 (NCI-H23): < 0.01 µM (active) | GI50 (NCI/ADR-RES): < 0.0136 µM (active) | GI50 (OVCAR-4): < 0.01 µM (active) | GI50 (OVCAR-5): 0.158 µM (active) | GI50 (SF-268): < 0.01 µM (active) | GI50 (SK-MEL-28): < 0.01 µM (active) | GI50 (SK-MEL-2): 0.119 µM (active) | GI50 (SN12C): < 0.027 µM (active) | GI50 (U-251): < 0.01 µM (active) | GI50 (UACC-62): < 0.01 µM (active)

CCOC(=O)CSc1nc(N)c2c(-c3ccc(OC)c(OC)c3)c3c(nc2n1)CCCC3
GI50 (A549): > 100 µM (inactive) | GI50 (CAKI-1): > 100 µM (inactive) | GI50 (HL-60): > 100 µM (inactive) | GI50 (HOP-62): 39 µM (inactive) | GI50 (K562): > 100 µM (inactive) | GI50 (M14): > 100 µM (inactive) | GI50 (MOLT-4): > 100 µM (inactive) | GI50 (Malme-3M): 88.1 µM (inactive) | GI50 (NCI-H23): > 100 µM (inactive) | GI50 (NCI/ADR-RES): 60.3 µM (inactive) | GI50 (OVCAR-4): 34.4 µM (inactive) | GI50 (OVCAR-5): > 100 µM (inactive) | GI50 (SF-268): 43.4 µM (inactive) | GI50 (SK-MEL-28): > 100 µM (inactive) | GI50 (SN12C): > 100 µM (inactive) | GI50 (U-251): > 100 µM (inactive) | GI50 (UACC-62): > 100 µM (inactive)
